Measured values published in patent publication US6924297B2, “Naphathalene derivatives which bind to the EP4 receptor” (SmithKline Beecham Corporation, priority 2000, dated 2005).

Target: T1, human EP4 receptor (Homo sapiens, UniProt P35408)
T1 construct: expressed in transfected cells; host or cells: Chinese Hamster Ovary (CHO) cells infected with recombinant Semliki Forest Virus (SFV-1) particles; membranes prepared from these cells
Assay: Human EP4 Scintillation Proximity Assay (radioligand binding)
Conditions: membranes of CHO cells expressing human EP4 receptor; [3H]-prostaglandin E2 radioligand; pKi from IC50 by Cheng-Prusoff; read-out: pKI at EP4 receptors (converted)
Method: Quantification of radioligand binding by scintillation proximity assay (SPA) is a long-established principle. Briefly, the affinity of compounds for a receptor is assessed by the specific competition between known quantities of radiolabelled ligand and compound for that receptor. Increasing concentrations of compound reduce the amount of radiolabel that binds to the receptor. This gives rise to a diminishing scintillation signal from SPA beads coated with membranes that bear the receptor. The signal may be detected with a suitable scintillation counter and the data generated may be analysed with suitable curve-fitting software.
The human EP4 SPA assay (hereafter referred to as ‘the assay’) utilises membranes prepared from Chinese Hamster Ovary (CHO cells) infected with Semliki Forest Virus (SFV). Genetically engineered SFV-1 viral particles containing the genetic sequence of the human EP4 receptor were used to infect CHO cells resulting in expression of the receptor protein in cellular membranes. Cells washed free of media are homogenised in a pH-buffered medium containing peptidase inhibitors. A suitable buffer is of the following composition: 50 mM HEPES, 1 mM EDTA, 25 μg/ml bacitracin, 100 μM leupeptin, 1 mM PMSF, 2 μM Pepstatin A, pH adjusted to 7.4 with KOH. Following removal of cell debris by a low-speed centrifugation, a pellet of membranes is prepared by a high-speed (48000 g) centrifugation of the resulting supernatant. Membrane suspensions such as that described may be stored at −80° C. until used.
For assay, membranes expressing human EP4 receptors are diluted in a pH-buffered medium and mixed with SPA beads coated with a suitable substance to facilitate the adhesion of membranes to the beads. The concentrations of membrane protein and SPA beads chosen should result in SPA binding signal of at least 300 corrected counts per minute (CCPM) when tritiated radioligand at a concentration close to its Kd (affinity value) is combined with the mixture. Non-specific binding (nsb) may be determined by competition between the radiolabelled ligand and a saturating concentration of unlabelled ligand. In order to quantify the affinity of EP4 receptor ligands, compounds are diluted in a stepwise manner across the wells of a 96-well plate. Radioligand, compound, and unlabelled ligand are then added to a 96-well plate suitable for the measurement of SPA binding signals prior to the addition of bead/membrane mixture to initiate the binding reaction. Equilibrium may be achieved by incubation at room temperature for 120 minutes prior to scintillation counting. The data so generated may be analysed by means of a computerised curve-fitting routine in order to quantify the concentration of compound that displaces 50% of the specific radioligand binding (IC50). The affinity (pKi) of the compound may be calculated from the IC50 by application of the Cheng-Prusoff correction. Suitable reagents and protocols are: reaction buffer containing 50 mM HEPES, 10 mM MgCl2, pH adjusted to 7.4 with KOH; SPA beads coated with wheatgerm agglutinin; 1.25 nM [^3H]-prostaglandin E2 as radioligand; 10 μM prostaglandin E2 as unlabelled ligand; a three-fold dilution series of compound starting at 10 μM and ending at 0.3 nM is adequate.

T1 sequence (P35408 whole entry): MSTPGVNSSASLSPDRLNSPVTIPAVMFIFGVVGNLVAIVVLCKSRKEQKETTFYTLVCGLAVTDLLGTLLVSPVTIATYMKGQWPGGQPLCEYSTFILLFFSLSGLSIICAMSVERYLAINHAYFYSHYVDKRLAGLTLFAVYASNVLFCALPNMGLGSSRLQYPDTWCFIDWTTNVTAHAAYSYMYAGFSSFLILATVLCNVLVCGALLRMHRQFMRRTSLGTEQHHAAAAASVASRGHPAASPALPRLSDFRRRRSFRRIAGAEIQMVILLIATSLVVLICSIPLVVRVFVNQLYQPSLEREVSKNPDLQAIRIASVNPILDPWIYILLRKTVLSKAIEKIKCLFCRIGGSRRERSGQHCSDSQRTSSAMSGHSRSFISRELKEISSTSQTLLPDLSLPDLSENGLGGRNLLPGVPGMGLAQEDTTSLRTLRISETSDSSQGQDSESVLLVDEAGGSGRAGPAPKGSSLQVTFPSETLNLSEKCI

Work on `CCOc1c2c(c(OCC)c3ccccc13)C(=O)N(c1ccc(CS(=O)(=O)NC(=O)Cc3cccc(C)c3)cc1)C2` [Example 26] yielded a Ki of at most 100 nM.
In the case of `CCOc1c2c(c(OCC)c3ccccc13)C(=O)N(c1ccc(CS(=O)(=O)NC(=O)C(C)(C)c3cccc(C)c3)cc1)C2=O` [Example 73], the Ki is reported as at most 100 nM.
`CCOc1c2c(c(OCC)c3ccccc13)C(=O)N(c1ccc(CS(=O)(=O)NC(=O)Cc3cc(OC)cc(OC)c3)cc1)C2` [Example 83] showed a Ki of at most 100 nM.
Molecule `CCOc1c2c(c(OCC)c3ccccc13)C(=O)N(c1ccc(CS(=O)(=O)NC(=O)Cc3ccc(F)cc3)cc1)C2=O` [Example 62] has a Ki of at most 100 nM.
`CCOc1c2c(c(OCC)c3ccccc13)C(=O)N(c1ccc(CS(=O)(=O)NC(=O)Cc3c(C)cccc3C)cc1)C2=O` [Example 72] gave a Ki of at most 100 nM.
`CCOc1c2c(c(OCC)c3ccccc13)C(=O)N(c1ccc(CS(=O)(=O)NC(=O)Cc3ccc4c(c3)OC(C)(C)O4)cc1)C2` [Example 85] gave a Ki of at most 100 nM.
Work on `CCOc1c2c(c(OCC)c3ccccc13)C(=O)N(c1ccc(CS(=O)(=O)NC(=O)Cc3ccc(OC)cc3)cc1)C2=O` [Example 2] yielded a Ki of at most 100 nM.
`CCOc1c2c(c(OCC)c3ccccc13)C(=O)N(c1ccc(CS(=O)(=O)NC(=O)Cc3cccc(OC)c3)cc1)C2` [Example 43, 1-[4-(4,9-diethoxy-1-oxo-1,3-dihydro-2H-benzo[f]isoindol-2-yl)phenyl]-N-[(3-methoxyphenyl)acetyl]methanesulfonamide] gave a Ki of at most 100 nM.
With `CCOc1c2c(c(OCC)c3ccccc13)C(=O)N(c1ccc(CS(=O)(=O)NC(=O)Cc3ccsc3)cc1)C2` [Example 51] the Ki was at most 100 nM.
In the case of `CCOc1c2c(c(OCC)c3ccccc13)C(=O)N(c1ccc(CS(=O)(=O)NC(=O)Cc3ccccc3C)cc1)C2` [Example 21], the Ki is reported as at most 100 nM.
With `CCOc1c2c(c(OCC)c3ccccc13)C(=O)N(c1ccc(CS(=O)(=O)NC(=O)Cn3ccc4ccccc43)cc1)C2` [Example 87] the Ki was at most 100 nM.
With `CCOc1c2c(c(OCC)c3ccccc13)C(=O)N(c1ccc(CS(=O)(=O)NC(=O)Cc3ccc(OC(F)(F)F)cc3)cc1)C2` [Example 80] the Ki was at most 100 nM.
`CCOc1c2c(c(OCC)c3ccccc13)C(=O)N(c1ccc(CS(=O)(=O)NC(=O)Cc3cccc(F)c3)cc1)C2=O` [Example 65] was tested, and the Ki was at most 100 nM.
For `CCOc1c2c(c(OCC)c3ccccc13)C(=O)N(c1ccc(CS(=O)(=O)NC(=O)Cc3ccccc3C)cc1)C2=O` [Example 61], the Ki was at most 100 nM.
With `CCOc1c2c(c(OCC)c3ccccc13)C(=O)N(c1ccc(CS(=O)(=O)NC(=O)Cc3ccc(OC)c(OC)c3)cc1)C2` [Example 38, 1-[4-(4,9-diethoxy-1-oxo-1,3-dihydro-2H-benzo[f]isoindol-2-yl)phenyl]-N-[(3,4-dimethoxyphenyl)acetyl]methanesulfonamide] the Ki was at most 100 nM.
